Columns and labels:
Assay type in all cases: functional
[1] = Growth inhibition of human UACC257 cells assessed as cell growth at 10^-6 M after 48 hrs by sulforhodamine B assay; conditions: UACC-257, 48 h, read-out: Activity
SK-OV-3 [2] = experiment: Growth inhibition of human SKOV3 cells after 48 hrs by sulforhodamine B assay; conditions: SK-OV-3, 48 h; for CC50: read-out: LC50 (the source's name)
SW-620 = experiment: Growth inhibition of human SW620 cells assessed as cell growth at 10^-8 M after 48 hrs by sulforhodamine B assay; conditions: SW-620, 48 h; for growth at 0.01 µM: read-out: Activity; for TGI: read-out: pTGI (converted)
MDA-MB-468 = experiment: Growth inhibition of human MDA-MB-468 cells assessed as cell growth at 10^-4 M after 48 hrs by sulforhodamine B assay; conditions: MDA-MB-468, 48 h, read-out: Activity
[3] = Growth inhibition of human OVCAR5 cells assessed as cell growth at 10^-8 M after 48 hrs by sulforhodamine B assay; conditions: OVCAR-5, 48 h; for growth at 0.01 µM: read-out: Activity; for TGI: read-out: pTGI (converted)
SK-OV-3 [4] = experiment: Growth inhibition of human SKOV3 cells assessed as cell growth at 10^-4 M after 48 hrs by sulforhodamine B assay; conditions: SK-OV-3, 48 h, read-out: Activity
SNB-19 = experiment: Growth inhibition of human SNB19 cells assessed as cell growth at 10^-4 M after 48 hrs by sulforhodamine B assay; conditions: SNB-19, 48 h, read-out: Activity
NCI-H460 = experiment: Growth inhibition of human NCI-H460 cells after 48 hrs by sulforhodamine B assay; conditions: NCI-H460, 48 h; for CC50: read-out: LC50 (the source's name)
[5] = Growth inhibition of human SF295 cells assessed as cell growth at 10^-4 M after 48 hrs by sulforhodamine B assay; conditions: SF-295, 48 h, read-out: Activity
[6] = Growth inhibition of human LOXIMVI cells assessed as cell growth at 10^-8 M after 48 hrs by sulforhodamine B assay; conditions: LOX IMVI; for growth at 0.01 µM: read-out: Activity; for TGI: read-out: pTGI (converted)
COLO 205 = experiment: Induction of apoptosis in human COLO205 cells assessed as caspase 9 activation at 10 uM by FLICA
786-0 [7] = experiment: Growth inhibition of human 786-0 cells assessed as cell growth at 10^-6 M after 48 hrs by sulforhodamine B assay; conditions: 786-0, 48 h, read-out: Activity
IGROV-1 [8] = experiment: Growth inhibition of human IGROV1 cells assessed as cell growth at 10^-4 M after 48 hrs by sulforhodamine B assay; conditions: IGROV-1, 48 h, read-out: Activity
[9] = Growth inhibition of human SF539 cells after 48 hrs by sulforhodamine B assay; conditions: SF-539, 48 h; for CC50: read-out: LC50 (the source's name)
786-0 [10] = experiment: Growth inhibition of human 786-0 cells assessed as cell growth at 10^-4 M after 48 hrs by sulforhodamine B assay; conditions: 786-0, 48 h, read-out: Activity
[11] = Growth inhibition of human OVCAR4 cells assessed as cell growth at 10^-8 M after 48 hrs by sulforhodamine B assay; conditions: OVCAR-4, 48 h; for growth at 0.01 µM: read-out: Activity; for TGI: read-out: pTGI
KM12 = experiment: Growth inhibition of human KM12 cells assessed as cell growth at 10^-7 M after 48 hrs by sulforhodamine B assay; conditions: KM12, 48 h, read-out: Activity
[12] = Growth inhibition of human BT549 cells assessed as cell growth at 10^-6 M after 48 hrs by sulforhodamine B assay; conditions: BT-549, 48 h, read-out: Activity
SN12C = experiment: Growth inhibition of human SN12C cells assessed as cell growth at 10^-8 M after 48 hrs by sulforhodamine B assay; conditions: for growth at 0.01 µM: read-out: Activity; for TGI: read-out: pTGI (converted)
M14 = experiment: Growth inhibition of human M14 cells assessed as cell growth at 10^-7 M after 48 hrs by sulforhodamine B assay; conditions: M14, 48 h, read-out: Activity
786-0 [13] = experiment: Growth inhibition of human 786-0 cells assessed as cell growth at 10^-8 M after 48 hrs by sulforhodamine B assay; conditions: 786-0, 48 h; for growth at 0.01 µM: read-out: Activity; for TGI: read-out: pTGI (converted)
NCI-H522 = experiment: Growth inhibition of human NCI-H522 cells assessed as cell growth at 10^-6 M after 48 hrs by sulforhodamine B assay; conditions: NCI-H522, 48 h, read-out: Activity
K562 = experiment: Growth inhibition of human K562 cells assessed as cell growth at 10^-7 M after 48 hrs by sulforhodamine B assay; conditions: K562, 48 h, read-out: Activity
IGROV-1 [14] = experiment: Growth inhibition of human IGROV1 cells assessed as cell growth at 10^-6 M after 48 hrs by sulforhodamine B assay; conditions: IGROV-1, 48 h, read-out: Activity
[15] = Growth inhibition of human UACC257 cells assessed as cell growth at 10^-4 M after 48 hrs by sulforhodamine B assay; conditions: UACC-257, 48 h, read-out: Activity
[16] = Growth inhibition of human OVCAR4 cells after 48 hrs by sulforhodamine B assay; conditions: OVCAR-4, 48 h; for CC50: read-out: LC50 (the source's name)
[17] = Growth inhibition of human SF539 cells assessed as cell growth at 10^-7 M after 48 hrs by sulforhodamine B assay; conditions: SF-539, 48 h, read-out: Activity
[18] = Growth inhibition of human NCI-ADR-RES cells assessed as cell growth at 10^-8 M after 48 hrs by sulforhodamine B assay; conditions: for growth at 0.01 µM: read-out: Activity; for TGI: read-out: pTGI (converted)
[19] = Growth inhibition of human OVCAR3 cells assessed as cell growth at 10^-7 M after 48 hrs by sulforhodamine B assay; conditions: OVCAR-3, 48 h, read-out: Activity
[20] = Growth inhibition of human MOLT4 cells assessed as cell growth at 10^-6 M after 48 hrs by sulforhodamine B assay; conditions: MOLT-4, 48 h, read-out: Activity
ACHN = experiment: Growth inhibition of human ACHN cells assessed as cell growth at 10^-8 M after 48 hrs by sulforhodamine B assay; conditions: for growth at 0.01 µM: read-out: Activity; for TGI: read-out: pTGI (converted)
SF-268 = experiment: Growth inhibition of human SF268 cells assessed as cell growth at 10^-7 M after 48 hrs by sulforhodamine B assay; conditions: SF-268, 48 h, read-out: Activity
[21] = Growth inhibition of human MOLT4 cells assessed as cell growth at 10^-7 M after 48 hrs by sulforhodamine B assay; conditions: MOLT-4, 48 h, read-out: Activity

Structure (SMILES): Cc1ccc(S(=O)(=O)N2C/C(=C\c3cc(F)cc(F)c3)C(=O)/C(=C/c3cc(F)cc(F)c3)C2)cc1
- growth at 1 µM [1]: 49%
- GI50 (SK-OV-3 [2]): 1840 nM
- TGI (SK-OV-3 [2]): 5620 nM
- CC50 (SK-OV-3 [2]): 37200 nM
- GI50 (SW-620): 72.4 nM
- LC50 (SW-620): 1450 nM
- growth at 0.01 µM (SW-620): 99%
- TGI (SW-620): 302 nM
- growth at 100 µM (MDA-MB-468): -79%
- GI50 [3]: 1020 nM
- LC50 [3]: 7410 nM
- growth at 0.01 µM [3]: 95%
- TGI [3]: 2750 nM
- growth at 100 µM (SK-OV-3 [4]): -68%
- growth at 100 µM (SNB-19): -100%
- GI50 (NCI-H460): 828 nM
- TGI (NCI-H460): 2870 nM
- CC50 (NCI-H460): 9220 nM
- growth at 100 µM [5]: -75%
- GI50 [6]: 174 nM
- growth at 0.01 µM [6]: 97%
- CC50 ([6]; read-out: pLC50 (the source's name) (converted)): 661 nM
- TGI [6]: 339 nM
- Activity (COLO 205): 40.5%
- growth at 1 µM (786-0 [7]): 34%
- growth at 100 µM (IGROV-1 [8]): -80%
- GI50 [9]: 1210 nM
- TGI [9]: 2870 nM
- CC50 [9]: 6810 nM
- growth at 100 µM (786-0 [10]): -95%
- GI50 [11]: 437 nM
- LC50 [11]: 36300 nM
- growth at 0.01 µM [11]: 100%
- TGI [11]: 5250 nM
- growth at 0.1 µM (KM12): 103%
- growth at 1 µM [12]: -4%
- GI50 (SN12C): 339 nM
- LC50 (SN12C): 4270 nM
- growth at 0.01 µM (SN12C): 95%
- TGI (SN12C): 1320 nM
- growth at 0.1 µM (M14): 98%
- GI50 (786-0 [13]): 589 nM
- LC50 (786-0 [13]): 4900 nM
- growth at 0.01 µM (786-0 [13]): 104%
- TGI (786-0 [13]): 1910 nM
- growth at 1 µM (NCI-H522): -2%
- growth at 0.1 µM (K562): 44%
- growth at 1 µM (IGROV-1 [14]): 18%
- growth at 100 µM [15]: -84%
- GI50 [16]: 441 nM
- TGI [16]: 5230 nM
- CC50 [16]: 36300 nM
- growth at 0.1 µM [17]: 93%
- GI50 [18]: 437 nM
- LC50 [18]: 75900 nM
- growth at 0.01 µM [18]: 104%
- TGI [18]: 10200 nM
- growth at 0.1 µM [19]: 112%
- growth at 1 µM [20]: 8%
- GI50 (ACHN): 245 nM
- LC50 (ACHN): 2400 nM
- growth at 0.01 µM (ACHN): 101%
- TGI (ACHN): 617 nM
- growth at 0.1 µM (SF-268): 100%
- growth at 0.1 µM [21]: 88%

Structure (SMILES): O=C1/C(=C/c2ccc(Cl)cc2Cl)CN(S(=O)(=O)c2ccccc2)C/C1=C\c1ccc(Cl)cc1Cl
- growth at 1 µM [1]: 86%
- GI50 (SK-OV-3 [2]): 7950 nM
- TGI (SK-OV-3 [2]): > 100000 nM
- CC50 (SK-OV-3 [2]): > 100000 nM
- GI50 (SW-620): 316 nM
- LC50 (SW-620): > 100000 nM
- growth at 0.01 µM (SW-620): 97%
- TGI (SW-620): 2820 nM
- growth at 100 µM (MDA-MB-468): -34%
- GI50 [3]: 2140 nM
- LC50 [3]: > 100000 nM
- growth at 0.01 µM [3]: 92%
- TGI [3]: 7410 nM
- growth at 100 µM (SK-OV-3 [4]): 24%
- growth at 100 µM (SNB-19): -23%
- GI50 (NCI-H460): 208 nM
- TGI (NCI-H460): 447 nM
- CC50 (NCI-H460): 959 nM
- growth at 100 µM [5]: -11%
- GI50 [6]: 204 nM
- growth at 0.01 µM [6]: 95%
- TGI [6]: 513 nM
- Activity (COLO 205): 22%
- growth at 1 µM (786-0 [7]): -37%
- growth at 100 µM (IGROV-1 [8]): -47%
- GI50 [9]: 424 nM
- TGI [9]: 2070 nM
- CC50 [9]: > 100000 nM
- growth at 100 µM (786-0 [10]): -93%
- GI50 [11]: 282 nM
- LC50 [11]: > 100000 nM
- growth at 0.01 µM [11]: 102%
- TGI [11]: > 100000 nM
- growth at 0.1 µM (KM12): 105%
- growth at 1 µM [12]: 50%
- GI50 (SN12C): 245 nM
- LC50 (SN12C): > 100000 nM
- growth at 0.01 µM (SN12C): 93%
- TGI (SN12C): 724 nM
- growth at 0.1 µM (M14): 104%
- GI50 (786-0 [13]): 240 nM
- LC50 (786-0 [13]): 1700 nM
- growth at 0.01 µM (786-0 [13]): 101%
- TGI (786-0 [13]): 550 nM
- growth at 1 µM (NCI-H522): 47%
- growth at 0.1 µM (K562): 99%
- growth at 1 µM (IGROV-1 [14]): -30%
- growth at 100 µM [15]: 42%
- GI50 [16]: 279 nM
- TGI [16]: > 100000 nM
- CC50 [16]: > 100000 nM
- growth at 0.1 µM [17]: 97%
- GI50 [18]: 1380 nM
- LC50 [18]: > 100000 nM
- growth at 0.01 µM [18]: 105%
- TGI [18]: > 100000 nM
- growth at 0.1 µM [19]: 108%
- growth at 1 µM [20]: 34%
- GI50 (ACHN): 871 nM
- LC50 (ACHN): > 100000 nM
- growth at 0.01 µM (ACHN): 99%
- TGI (ACHN): 4570 nM
- growth at 0.1 µM (SF-268): 98%
- growth at 0.1 µM [21]: 106%

Source: ChEMBL document CHEMBL3217615, “Novel 3,5-bis(arylidiene)-4-piperidone based monocarbonyl analogs of curcumin: anticancer activity evaluation and mode of action study” (2014)
